{"source": "patent US20130095059A1", "about": "“INHALED NO DONOR KMUPS DERIVATIVE PREVENTING ALLERGIC PULMONARY VASCULAR AND BRONCHIAL INFLAMMATION VIA SUPPRESSED CYTOKINES, INOS AND INFLAMMATORY CELL COUNTS IN ASTHMA MODEL” (priority 2007, published 2013)", "key": {"RhoA": {"system": "RhoA", "assay": "5-HT-induced RhoA translocation in PASMCs", "format": "cell-based, Wistar rats", "details": "24 h treatment, 1-100 μM", "procedure": "Previous reports have shown that the active form of RhoA is translocated from the cytosol to the plasma membrane, where it activates Rho kinase. Therefore, the membrane/cytosol ratio of RhoA is considered a measure of RhoA activity. The cytosol and membrane protein of PASMCs were extracted with a CNM (cytosol, nuclear, membrane) kit. To assess membrane trans-location of RhoA, protein in membrane and cytosolic fractions was determined by standard Western blot analysis using mouse monoclonal anti-RhoA antibody (1:1000 dilution, Santa Cruz Biotechnology) and a peroxidase-labeled anti-mouse immunoglobulin (Ig) G antibody (1:1000 dilution, Santa Cruz Biotechnology, CA, USA). The relative density of membrane to cytosolic RhoA was determined using NIH imaging software.\nThe expression of RhoA/ROCK and phosphorylation of ERK1/2 and AKT kinase in PASMCs were assessed by incubating the PASMCs with 5-HT (10 μM) for 15 min (peak time for RhoA/ROCK, ERK1/2 and AKT phosphorylation) and 5-HTT for 10 min (peak time for 5-HTT) after KMUP-1 (1-100 μM) was added to the culture of PASMCs for 24 h."}, "5-HT2C receptor": {"target": "T1, 5-HT2C receptor (Homo sapiens, UniProt P28335)", "T1 construct": "full length clones of 5-HT2A, 5-HT2B and 5-HT2C receptor were prepared from CHO-K1 cells; expressed in transfected cells; host or cells: CHO-K1", "T1 sequence (P28335 33-458)": "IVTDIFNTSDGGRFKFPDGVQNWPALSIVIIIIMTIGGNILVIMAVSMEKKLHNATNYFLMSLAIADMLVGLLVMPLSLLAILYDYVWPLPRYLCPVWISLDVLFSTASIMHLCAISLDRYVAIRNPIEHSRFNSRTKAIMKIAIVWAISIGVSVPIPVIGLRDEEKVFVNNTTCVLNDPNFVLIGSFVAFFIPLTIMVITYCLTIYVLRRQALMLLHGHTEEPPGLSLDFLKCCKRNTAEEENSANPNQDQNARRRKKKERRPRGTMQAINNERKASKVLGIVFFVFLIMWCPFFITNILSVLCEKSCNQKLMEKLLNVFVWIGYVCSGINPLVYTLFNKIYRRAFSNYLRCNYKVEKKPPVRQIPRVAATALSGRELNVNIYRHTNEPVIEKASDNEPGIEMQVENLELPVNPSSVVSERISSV", "assay": "Displacement of radioligand binding, 5-HT2C", "details": "[^3H]-mesulergine, human recombinant CHO-K1 cells", "procedure": "(§1) Displacement of Radioligand Binding Assay\n(§2) As described previously, full length clones of 5-HT2A, 5-HT2B and 5-HT2C receptor were prepared from CHO-K1 cells. […] IC50 represents the concentration of competing ligand which displaces 50% of the specific binding of the radioligand. Ki values for competition curves were calculated using the Cheng-Prusoff equation (Cheng, 2001)."}, "PKG": {"system": "PKG", "assay": "Ovalbumine model, PKG expression", "format": "in vivo, BALB/c mice", "details": "28-day experiment; nebulization", "procedure": "(§3) In this long-term experiment, 6-8 week old BALB/c female mice were sensitized on days 1 and 8 by intra-peritoneal injection (i.p.) of ovalbumine (10 μg) (Sigma-Aldrich, Schnelldorf, Germany) adsorbed to 2 mg aluminum hydroxide (AlumInject; Perbio, Erembodegem, Belgium). Mice were divided into three groups. In Group 1, a control group was only exposed to saline nebulization by aerosol. The other 2 groups were subjected to ovalbumine (1%) nebulization. Before each challenge with ovalbumine, mice were either exposed to saline nebulization (Group 2) or KMUP-1 nebulization (5 mM) for 30 min by aerosol (Group 3).\nThe lung tissues were homogenized, washed with PBS and incubated in lysis buffer in addition to a protease inhibitor cocktail (Sigma, St. Louis, Mo.) to obtain extracts of lung proteins. A Western blot analysis was performed as described previously (Wu B N, et al., 2006). The samples were loaded to 10% SDS-PAGE gels and were separated at 120 V for 90 min. The blots were incubated with anti-eNOS antibody diluted at a ratio of 1:500, anti-sGCα1 antibody diluted at a ratio of 1:2000, anti-PKG antibody diluted at a ratio of 1:500, anti-VCAM-1 antibody diluted at a ratio of 1:500, anti-ICAM-1 antibody diluted at a ratio of 1:500, and anti-MMP-9 antibody diluted at a ratio of 1:600 overnight at 4° C. […]"}, "BALF cells": {"system": "BALF cells", "assay": "Ovalbumine model, bronchoalveolar lavage cell counts", "format": "in vivo, BALB/c mice", "details": "24 hrs after the last ovalbumine challenge; nebulization", "procedure": "as §3\nAfter the sacrifice of mice, a cannula was placed in the trachea for bronchoalveolar lavage by gentle manual aspiration, using cold PBS-EDTA (0.05 mM, 1 ml) (Calbiochem, Darmstadt, Germany) as previously described (Cataldo D D, et al., 2002). The broncho alveolar lavage fluid (BALF) was centrifuged at 4° C. for 10 min (1200 rpm). The supernatant was frozen at −80° C. for protein assessment and the cell pellet was resuspended in PBS-EDTA (0.05 mM, 1 ml). Total cell counts were performed manually using a thoma chamber. The differential cell counts were performed using morphologic criteria on cytocentrifuged preparations (Cytospin) after staining with Diff-Quick (Dade, Belgium). Differential cell counts were performed by one blinded observer unaware of the experimental treatment."}, "inflammatory cells": {"system": "inflammatory cells", "assay": "Ovalbumine model, histology of peri-vascular and peri-bronchiolar regions", "format": "in vivo, BALB/c mice", "details": "ovalbumine-exposed mice; nebulization 5 mM 30 min", "procedure": "as §3\nSections of fixed embedded tissues were cut at […], placed on glass slides, deparaffinized and stained sequentially with hematoxylin 2 and eosin-Y (MUTO PURE CHEMICALS CO., LTD., Tokyo, Japan) (Tournoy K G, et al., 2000). To confirm the relationship between vascular inflammation/remodeling and expression of proteins, lung tissue sections from ovalbumine experiments were prepared and stained with hematoxylin-eosin as previously described (Hongo M, et al., 2000). Microphotography analysis of blood vessels and bronchioles, focusing on peri-bronchial and peri-vascular region in the lung sections, was performed using a color digital camera mounted on a computer-interfaced light microscope (Eclipse TE2000-S microscope, Nikon, Tokyo, Japan)."}, "5-HT2B receptor": {"target": "T2, 5-HT2B receptor (Homo sapiens, UniProt P41595)", "T2 construct": "full length clones of 5-HT2A, 5-HT2B and 5-HT2C receptor were prepared from CHO-K1 cells; expressed in transfected cells; host or cells: CHO-K1", "T2 sequence (P41595 whole entry)": "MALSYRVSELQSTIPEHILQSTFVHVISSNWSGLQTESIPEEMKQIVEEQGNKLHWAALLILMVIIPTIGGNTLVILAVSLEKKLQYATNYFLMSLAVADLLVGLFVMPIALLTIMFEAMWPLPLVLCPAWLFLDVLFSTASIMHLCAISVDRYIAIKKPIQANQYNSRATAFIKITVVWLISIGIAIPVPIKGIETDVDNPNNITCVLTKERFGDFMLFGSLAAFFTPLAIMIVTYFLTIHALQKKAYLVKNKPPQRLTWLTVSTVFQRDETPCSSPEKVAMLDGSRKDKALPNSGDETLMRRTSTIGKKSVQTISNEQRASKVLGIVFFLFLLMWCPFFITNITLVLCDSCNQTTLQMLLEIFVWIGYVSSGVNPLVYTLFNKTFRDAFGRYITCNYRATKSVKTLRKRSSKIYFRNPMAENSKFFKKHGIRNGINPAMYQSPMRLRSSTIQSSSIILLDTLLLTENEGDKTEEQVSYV", "assay": "Displacement of radioligand binding, 5-HT2B", "procedure": "as §1, §2"}}}
{"smiles": "Cn1c(=O)c2c(ncn2CCN2CCN(c3ccccc3Cl)CC2)n(C)c1=O", "note": "[KMUP-1, 7-[2-[4-(2-chlorophenyl)piperazinyl]ethyl]-1,3-dimethylxanthine]", "values": [{"measurement": "5-HT-induced RhoA membrane association", "setting": "RhoA", "result": "dose-dependently reversed"}, {"measurement": "IC50", "setting": "5-HT2C receptor", "result": 408, "unit": "nM"}, {"measurement": "Ki", "setting": "5-HT2C receptor; Cheng-Prusoff", "result": 214, "unit": "nM"}, {"measurement": "decreased PKG expression by ovalbumine sensitization", "setting": "PKG", "result": "significantly reduced"}, {"measurement": "increase in total cells, lymphocytes and eosinophils in the airway lumen", "setting": "BALF cells", "result": "significantly reduced"}, {"measurement": "inflammatory cells in the peri-vascular and peri-bronchiolar regions", "setting": "inflammatory cells", "result": "marked reductions"}, {"measurement": "ligand specificity of 5-HT2B receptor versus 5-HT2A and 5-HT2C receptors", "setting": "5-HT2B receptor", "result": "more selective"}, {"measurement": "IC50", "setting": "5-HT2B receptor; [^3H]-LSD, human recombinant CHO-K1 cells", "result": 40, "unit": "nM"}, {"measurement": "Ki", "setting": "5-HT2B receptor; [^3H]-LSD, human recombinant CHO-K1 cells, Cheng-Prusoff", "result": 25.4, "unit": "nM"}]}
